In patent US6355616B1, “Derivative compounds derived from or based on bactericidal/permeability-increasing protein” (priority 1999, dated 2002):
Like-named read-outs stand apart in the source and are kept apart here. Non-standard residues stand in square brackets, D forms with d. Residues, ends and D or L forms follow the SMILES beside them. Aoc = NCCCCCCCC(=O)O

How the values were obtained:
[1] = system: Candida albicans designated CA-1, Strain SLU-1; type: cell-based
Procedure: In each broth microdilution assay screening procedure, a colony of Candida albicans designated CA-1, Strain SLU-1 that was received from the laboratories of G. Matuschak and A. Lechner, St. Louis University Hospital, St. Louis, Mo., where the strain was maintained, was inoculated into a tube containing 5 mL Sabouraud Dextrose broth (2% dextrose, 1% neopeptone) and incubated at 37° C. with shaking. The overnight culture was diluted 1:50 into 5 ml of fresh broth and incubated for 3 hours at 37° C. to exponential phase growth. Organisms were pelleted by centrifugation in a Beckman J-6M centrifuge for 5 minutes at 3000 rpm (1500×g) and the pellets were resuspended in 5 mL phosphate buffered saline (PBS) and the optical density (OD) at 570 nm was determined. On the basis of the determination that one OD unit equals 3×10^7 colony forming units/mL (CFU/mL), yeast cells were diluted to 5×10^3 CFU/mL in Sabouraud Dextrose broth (SBD).
Derivatized peptide sequences based on Domain III of BPI to be screened which were originally constituted in Dulbecco's-PBS, were two-fold serially diluted in SDB starting from a concentration of 128 μg/mL. Equal volumes (100 μL) of yeast suspension as prepared above and derivatized peptide solution were added to wells of a 96-well sterile, flat bottom, non-pyrogenic tissue culture microtiter plate (Costar, Cambridge, Mass.) to reach a final volume of 200 μL/well. The plate was incubated on a shaker at 37° C. for 24 hours. All assays were performed in triplicate. Following the incubation period, plates were read in an ELISA plate reader at 595 nm wavelength to determine the minimum inhibitory concentration (MIC), i.e., the lowest concentration required to reduce the optical density at 595 nm to below 0.1 OD.

Candida albicans SLU-1 = test: Radial diffusion assay; type: cell-based
Procedure: In the radial diffusion assay procedures, the CA-1 cultures and derivatized peptide solutions were prepared as in the broth microdilution assay procedure described above, i.e., CA-1 was grown to exponential phase in SDB. Ten (10) mL of molten underlayer agarose comprising 3% Sabouraud Dextrose broth, 1% agarose (Pharmacia, Piscataway, N.J.), 0.02% Tween 20, and 10 mM sodium phosphate at pH 7.4, was added to polystyrene tubes and maintained in a 56° C. water bath until the addition of yeast. Tubes were cooled to approximately 45° C., yeast were added to give a final concentration of 1×10^6 CFU/mL, and the tubes were mixed again by inverting. The contents were poured into leveled, square petri dishes and distributed evenly. […] A series of wells were punched into the hardened agarose using a sterile 3 mm punch attached to a vacuum apparatus to achieve a uniform, 3 mm diameter well.
Derivatized peptide sequences to be assayed were 2-fold serially diluted in 10 mM Dulbecco's PBS (D-PBS) starting from a concentration of approximately […]. Five μL of each dilution were added to each well and the plates were incubated at 37° C. for 3 hours to allow for complete diffusion of the test compounds. An overlayer of 10 mL of molten agarose comprising 6% Sabouraud Dextrose broth, 1% agarose, and 10 mM sodium phosphate, pH 7.4, (at approximately 45° C.) was then added and plates were incubated overnight at 37° C. Following this overnight incubation, a dilute Coomassie solution was poured into the plates and allowed to stain for 24 hours to enhance visualization of the zones.
Clear zones of growth inhibition around each well were measured with calipers. The actual area of growth inhibition (mm^2) was calculated by subtracting the area of the well. Table II below sets out the results of the radial diffusion assays for a series of tested peptide-based constructs in terms of the number of picomoles (pmol) of compound required to establish a 30 mm^2 area of growth inhibition of Candida albicans SLU-1 calculated by PROBIT analysis (e.g., calculated from regression of the linear portion of log-concentration dose-response curve, log pmol/well vs. net area of inhibition).

[2] = designated CA-1, Strain SLU-1, 24 h
[3] = 30 mm^2 area of growth inhibition, calculated by PROBIT analysis

Compound	Broth Microdilution (MIC values in μg/mL C. albicans SLU1) [1, 2]	Radial Diffusion (pmol to achieve 30 mm^2 zone C. albicans SLU1) (Candida albicans SLU-1; [3])	Broth Microdilution (MIC values in μg/mL C. albicans SLU1) ([1]; C. albicans SLU1)	Radial Diffusion (pmol to achieve 30 mm^2 zone C. albicans SLU1) (Candida albicans SLU-1)
CC[C@@H](C)[C@@H](NC(=O)[C@@H](CC(C)C)NC(=O)[C@@H](Cc1c[nH]c2ccccc12)NC(=O)[C@@H](CCCCN)NC(=O)c1cc2ccccc2[nH]1)C(=O)N[C@H](CCC(N)=O)C(=O)N[C@H](CC(C)C)C(=O)N[C@H](Cc1ccccc1)C(=O)N[C@H](Cc1c[nH]cn1)C(=O)N[C@H](CCCCN)C(=O)N[C@H](CCCCN)C(N)=O [XMP.545]	8 µg/mL	1,635 pmol		
CC[C@@H](C)[C@@H](NC(=O)[C@@H](CC(C)C)NC(=O)[C@@H](Cc1c[nH]c2ccccc12)NC(=O)[C@@H](CCCCN)NC(=O)CCCCCCCN)C(=O)N[C@H](CCC(N)=O)C(=O)N[C@H](CC(C)C)C(=O)N[C@H](Cc1ccccc1)C(=O)N[C@H](Cc1c[nH]cn1)C(=O)N[C@H](CCCCN)C(=O)N[C@H](CCCCN)C(N)=O [XMP.416] (H-[Aoc][dK][dW][dL][dI][dQ][dL][dF][dH][dK][dK]-NH2)	1 µg/mL	410 pmol		
CC[C@@H](C)[C@@H](NC(=O)[C@@H](CC(C)C)NC(=O)[C@@H](Cc1c[nH]c2ccccc12)NC(=O)[C@@H](CCCCN)NC(C)=O)C(=O)N[C@H](CCC(N)=O)C(=O)N[C@H](CC(C)C)C(=O)N[C@H](Cc1ccccc1)C(=O)N[C@H](Cc1c[nH]cn1)C(=O)N[C@H](CCCCNC(=O)CCCC[C@@H]1SC[C@@H]2NC(=O)N[C@@H]21)C(=O)N[C@H](CCCCN)C(N)=O [XMP.521]	16 µg/mL	959 pmol		
XMP.535: peptide-based construct; derivatization not given in Table I (KWLIQLFHKK; XMP.535; Position 1 is derivatized at the alpha-amino with: anthraquinone carbonyl; Positions 1-10 are D-Amino Acids; AMIDATION=The C-terminus is Amidated)			b (no detectable activity up to 5 μg/well)	b (no detectable activity up to 5 μg/well)
CC[C@@H](C)[C@@H](NC(=O)[C@@H](CC(C)C)NC(=O)[C@@H](Cc1c[nH]c2ccccc12)NC(=O)[C@@H](CCCCN)NC(=O)c1cc2ccccc2o1)C(=O)N[C@H](CCC(N)=O)C(=O)N[C@H](CC(C)C)C(=O)N[C@H](Cc1ccccc1)C(=O)N[C@H](Cc1c[nH]cn1)C(=O)N[C@H](CCCCN)C(=O)N[C@H](CCCCN)C(N)=O [XMP.536]	4 µg/mL	>3,371 pmol		
CC[C@@H](C)[C@@H](NC(=O)[C@@H](CC(C)C)NC(=O)[C@@H](Cc1c[nH]c2ccccc12)NC(=O)[C@@H](CCCCN)NC(=O)c1cccc(Cl)c1[N+](=O)[O-])C(=O)N[C@H](CCC(N)=O)C(=O)N[C@H](CC(C)C)C(=O)N[C@H](Cc1ccccc1)C(=O)N[C@H](Cc1c[nH]cn1)C(=O)N[C@H](CCCCN)C(=O)N[C@H](CCCCN)C(N)=O [XMP.618]	4 µg/mL	2,146 pmol		
CC[C@@H](C)[C@@H](NC(=O)[C@@H](CC(C)C)NC(=O)[C@@H](Cc1c[nH]c2ccccc12)NC(=O)[C@@H](CCCCN)NC(C)=O)C(=O)N[C@H](CCC(N)=O)C(=O)N[C@H](CC(C)C)C(=O)N[C@H](Cc1ccccc1)C(=O)N[C@H](Cc1c[nH]cn1)C(=O)N[C@H](CCCCN)C(=O)N[C@H](CCCCNC(=O)CCCC[C@@H]1SC[C@@H]2NC(=O)N[C@@H]21)C(N)=O [XMP.518]	8 µg/mL	484 pmol		
